Key:
[1] = target: T1, Dual specificity mitogen-activated protein kinase kinase 1 (Homo sapiens, UniProt Q02750); assay: Inhibitory activity against Dual specificity mitogen-activated protein kinase kinase using coupled MEK assay (which uses activated Raf to activate an inactivate GST-MEK)
[2] = target: T1, Dual specificity mitogen-activated protein kinase kinase 1; assay: Inhibitory activity against Dual specificity mitogen-activated protein kinase kinase using direct MEK assay (which by-passes the need for activated Raf by using an activated GST-MEK)
[3] = target: T1, Dual specificity mitogen-activated protein kinase kinase 1; assay: Inhibition of Dual specificity mitogen-activated protein kinase kinase in direct activated MEK assay
[4] = target: T1, Dual specificity mitogen-activated protein kinase kinase 1; assay: Inhibition of Dual specificity mitogen-activated protein kinase kinase in coupled activated Raf/MEK assay
LoVo = assay: Inhibition of LoVo human colon tumor cell proliferation

T1 sequence (Q02750 whole entry): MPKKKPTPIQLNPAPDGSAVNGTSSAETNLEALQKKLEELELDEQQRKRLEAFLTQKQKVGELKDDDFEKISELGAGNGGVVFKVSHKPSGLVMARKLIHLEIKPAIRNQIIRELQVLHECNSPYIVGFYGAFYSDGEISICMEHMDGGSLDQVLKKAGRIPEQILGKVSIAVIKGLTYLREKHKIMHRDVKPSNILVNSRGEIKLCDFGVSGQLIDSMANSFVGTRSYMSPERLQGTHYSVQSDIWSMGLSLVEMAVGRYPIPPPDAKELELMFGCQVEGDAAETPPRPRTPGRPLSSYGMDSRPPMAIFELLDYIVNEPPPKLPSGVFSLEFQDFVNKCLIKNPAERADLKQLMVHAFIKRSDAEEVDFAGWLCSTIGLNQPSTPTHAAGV

Structure (SMILES)	IC50 [1]	IC50 [2]	IC50 [3]	IC50 [4]	IC50 (LoVo)
COc1cc2ncc(C#N)c(Nc3ccc(SC)cc3)c2cc1OC	280 nM	1300 nM	–	–	–
COc1ccc(Nc2c(C#N)cnc3cc(OCCCN4CCOCC4)c(OC)cc23)cc1	99 nM	250 nM	–	–	–
COc1cc2c(Nc3ccc(CCc4ccccc4)cc3)c(C#N)cnc2cc1OCCCN1CCOCC1	–	–	150 nM	33 nM	–
COc1cc2c(Nc3ccc(CC4CCCCC4)cc3)c(C#N)cnc2cc1OCCCN1CCOCC1	200 nM	3300 nM	–	–	–
COc1ccc(Nc2c(C#N)cnc3cc(OC)c(OC)cc23)cc1	520 nM	3000 nM	–	–	–
COc1cc2ncc(C#N)c(Nc3ccc(O)cc3)c2cc1OC	550 nM	2200 nM	–	–	–
COc1cc2c(Nc3ccc(OC4CCCCC4)cc3)c(C#N)cnc2cc1OCCCN1CCOCC1	110 nM	320 nM	–	–	–
COc1cc2ncc(C#N)c(Nc3ccc(Nc4ccccc4)cc3)c2cc1OC	160 nM	1200 nM	–	–	–
COc1cc2ncc(C#N)c(Nc3ccc(Oc4ccc(Cl)cc4)cc3)c2cc1OC	43 nM	210 nM	–	–	–
COc1cc2c(Nc3ccc(Oc4ccncc4)cc3)c(C#N)cnc2cc1OCCCN1CCOCC1	26 nM	81 nM	–	–	–
COc1cc2ncc(C#N)c(Nc3ccccc3Oc3ccccc3)c2cc1OC	> 10000 nM	> 10000 nM	–	–	–

Further compounds by falling IC50 [1], results first:

IC50 [1]	IC50 [2]	IC50 [3]	IC50 [4]	IC50 (LoVo)	Structure (SMILES)
21 nM	300 nM	–	–	–	COc1cc2c(Nc3ccc(SC4CCCCC4)cc3)c(C#N)cnc2cc1OCCCN1CCOCC1
20 nM	66 nM	–	–	–	COc1cc2c(Nc3ccc(Cc4ccco4)cc3)c(C#N)cnc2cc1OCCCN1CCOCC1
14 nM	43 nM	–	–	–	COc1cc2c(Nc3ccc(Cc4ccoc4)cc3)c(C#N)cnc2cc1OCCCN1CCOCC1
4.4 nM	20 nM	–	–	–	COc1cc2c(Nc3ccc(Cc4cccs4)cc3)c(C#N)cnc2cc1OCCCN1CCOCC1
4.2 nM	23 nM	–	–	–	COc1cc2c(Nc3ccc(Cc4ccsc4)cc3)c(C#N)cnc2cc1OCCCN1CCOCC1
2.7 nM	14 nM	–	–	210 nM	COc1cc2c(Nc3ccc(Cc4ccccc4)cc3)c(C#N)cnc2cc1OCCCN1CCOCC1
2.4 nM	–	–	–	–	COc1cc2c(Nc3ccc(Oc4ccccc4)cc3)c(C#N)cnc2cc1OCCCN1CCOCC1
1.1 nM	5.7 nM	–	–	220 nM	COc1cc2c(Nc3ccc(Sc4ccccc4)cc3)c(C#N)cnc2cc1OCCCN1CCOCC1

Reference: ChEMBL document CHEMBL1134081, “MEK (MAPKK) inhibitors. Part 2: structure-activity relationships of 4-anilino-3-cyano-6,7-dialkoxyquinolines” (Bioorg Med Chem Lett, 2001)
